Several values for one entry are separate records, joined by “and”; a condition that tells them apart may be missing. Equal entries are not always repeated. Where two headings read alike, the source gives them in different places.
Tests used:
[1] = Ascorbate oxidation assay (redox activity of iron complexes); type: biochemical;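 for %Fe 30min (ascorbate oxidation, Fe 100%), průměr: IBE 3 means excess free chelator over iron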;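 for %Fe 30min (ascorbate oxidation, Fe 100%): IBE 3 means excess free chelator over iron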;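 for Change of absorbance, odečet 0 (time 0 subtracted), čas 10, průměr: IBE 3 means excess free chelator over 10 µM FeCl3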;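 for Change of absorbance, odečet 0 (time 0 subtracted), čas 10: IBE 3 means excess free chelator over 10 µM FeCl3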;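 for Change of absorbance, odečet 0 (time 0 subtracted), čas 20, průměr: 100 µM ascorbate with 10 µM FeCl3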;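 for Change of absorbance, odečet 0 (time 0 subtracted), čas 20: 100 µM ascorbate with 10 µM FeCl3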;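 for Change of absorbance, odečet 0 (time 0 subtracted), čas 30, průměr: 100 µM ascorbate with 10 µM FeCl3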;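 for Change of absorbance, odečet 0 (time 0 subtracted), čas 30: 100 µM ascorbate with 10 µM FeCl3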;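 for odečet 0 (reading minus time 0 reading) at čas 20, single replicates: IBE 1 means fully coordinated iron chelator complexes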;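 for odečet 0 (reading minus time 0 reading) at čas 30, průměr (mean): IBE 1 means fully coordinated iron chelator complexes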;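 for odečet 0 (reading minus time 0 reading) at čas 30, single replicates: IBE 1 means fully coordinated iron chelator complexes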;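 for raw reading at čas 20 (time 20), single replicates: IBE 1 means fully coordinated iron chelator complexes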;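 for raw reading at čas 30 (time 30), průměr (mean): IBE 1 means fully coordinated iron chelator complexes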;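 for raw reading at čas 30 (time 30), single replicates: IBE 1 means fully coordinated iron chelator complexes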
[2] = test system: H9c2 cardiomyoblasts; assay: MTT cytotoxicity assay, H9c2 cells; type: cell-based, rat; details: for IC50: MTT; for MTT, relative to control (0 = 100): H9c2
Outline: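 72 h/37°C exposure, 0.1% DMSO. Plating: MCF-7 5,000; HCT116, A549 2,000; H9c2 10,000 cells/well, H9c2 switched to serum/pyruvate-free DMEM 24 h. MTT OD 570 nm, 690 nm background subtracted. Viability as % untreated control; IC50 derived.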

[3] = test system: labile iron pool of MCF-7 cells; assay: Calcein-AM assay, access to the labile iron pool; type: cell-based, human; parameters: Calcein fluorescence: unit not given here; details: 10 μM; for Calcein fluorescence: mean (průměr)
Outline: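 MCF-7 cells iron-loaded with ferric ammonium citrate (530 μg/mL) for 24 h, then loaded with 2 μM calcein-AM for 30 min at 37°C in ADS buffer, pH 7.4. Calcein fluorescence dequenching (ex 488/em 530 nm) followed for 10 min after adding 10 μM compound; efficacy expressed as percentage of Bp4eT (100%).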

[4] = sheet IBE 1, time 20, replicates
[5] = sheet IBE 1, time 30, replicates

CCNC(=O)NN=C(c1ccccc1)c1ccccn1 [Z-Bp4eS, 2-benzoylpyridine 4-ethylsemicarbazone]
odečet 0 (reading minus time 0 reading) at čas 20, single replicates [1, 4]: -0.05822 and -0.05772 and -0.05662 and -0.09103 and -0.07213 and -0.05933 and -0.06186 and -0.05806 and -0.05096
raw reading at čas 20 (time 20), single replicates [1, 4]: 0.723 and 0.7379 and 0.7446 and 0.7316 and 0.7437 and 0.7404 and 0.7637 and 0.7781 and 0.7741
odečet 0 (reading minus time 0 reading) at čas 30, průměr (mean) ([1]; sheet IBE 1, time 30, mean): -0.09054
raw reading at čas 30 (time 30), průměr (mean) ([1]; sheet IBE 1, time 30, mean of 9 readings): 0.7209
odečet 0 (reading minus time 0 reading) at čas 30, single replicates [1, 5]: -0.08693 and -0.09103 and -0.08623 and -0.1189 and -0.09997 and -0.08537 and -0.08823 and -0.08163 and -0.07663
raw reading at čas 30 (time 30), single replicates [1, 5]: 0.6943 and 0.7046 and 0.715 and 0.7038 and 0.7159 and 0.7144 and 0.7373 and 0.7545 and 0.7484
%Fe 30min (ascorbate oxidation, Fe 100%), průměr ([1]; sheet IBE 3, 30min, Fe alone = 100%, mean (průměr) of the 9 replicates): 110.1%
%Fe 30min (ascorbate oxidation, Fe 100%) ([1]; sheet IBE 3, 30min, Fe alone = 100%, single replicates): 104.7% and 99.68% and 110% and 146.8% and 116.1% and 111.6% and 112.3% and 95.38% and 93.85%
Change of absorbance, odečet 0 (time 0 subtracted), čas 10, průměr ([1]; sheet IBE 3, time 10 minus time 0, mean (průměr)): -0.03903
Change of absorbance, odečet 0 (time 0 subtracted), čas 10 ([1]; sheet IBE 3, time 10 minus time 0, single replicates): -0.0367 and -0.0322 and -0.0443 and -0.057 and -0.0434 and -0.0428 and -0.03948 and -0.02878 and -0.02658
Change of absorbance, odečet 0 (time 0 subtracted), čas 20, průměr ([1]; sheet IBE 3, time 20 minus time 0, mean (průměr)): -0.07371
Change of absorbance, odečet 0 (time 0 subtracted), čas 20 ([1]; sheet IBE 3, time 20 minus time 0, single replicates): -0.07156 and -0.06896 and -0.07856 and -0.1012 and -0.07529 and -0.07709 and -0.07424 and -0.05944 and -0.05704
Change of absorbance, odečet 0 (time 0 subtracted), čas 30, průměr ([1]; sheet IBE 3, time 30 minus time 0, mean (průměr)): -0.1017
Change of absorbance, odečet 0 (time 0 subtracted), čas 30 ([1]; sheet IBE 3, time 30 minus time 0, single replicates): -0.09723 and -0.09253 and -0.1021 and -0.1363 and -0.1078 and -0.1036 and -0.1028 and -0.0873 and -0.0859
IC50 ([2]; H9c2, 72 h/37°C, mean ± SD, n ≥ 4, read-out: IC50): 343 ± 95.1 µM
MTT, relative to control (0 = 100) ([2]; 10 000 b/j, 1 μM, průměr (mean), sheet Z-Bp4eS): 99.81
MTT, relative to control (0 = 100) ([2]; 10 000 b/j, 1 μM, single experiment (date), sheet Z-Bp4eS): 102.371 and 103.08 and 95.5416 and 98.2281
MTT, relative to control (0 = 100) ([2]; 10 000 b/j, 3 μM, průměr (mean), sheet Z-Bp4eS): 93.78
MTT, relative to control (0 = 100) ([2]; 10 000 b/j, 3 μM, single experiment (date), sheet Z-Bp4eS): 92.602 and 95.2542 and 92.4159 and 94.8358
MTT, relative to control (0 = 100) ([2]; 10 000 b/j, 10 μM, průměr (mean), sheet Z-Bp4eS): 89.06
MTT, relative to control (0 = 100) ([2]; 10 000 b/j, 10 μM, single experiment (date), sheet Z-Bp4eS): 88.6483 and 89.659 and 90.3674 and 87.5524
MTT, relative to control (0 = 100) ([2]; 10 000 b/j, 30 μM, průměr (mean), sheet Z-Bp4eS): 76.27
MTT, relative to control (0 = 100) ([2]; 10 000 b/j, 30 μM, single experiment (date), sheet Z-Bp4eS): 77.9281 and 80.0605 and 74.6409 and 72.4521
MTT, relative to control (0 = 100) ([2]; 10 000 b/j, 100 μM, průměr (mean), sheet Z-Bp4eS): 56.31
MTT, relative to control (0 = 100) ([2]; 10 000 b/j, 100 μM, single experiment (date), sheet Z-Bp4eS): 59.4912 and 57.2744 and 57.5228 and 50.9483
MTT, relative to control (0 = 100) ([2]; 10 000 b/j, 300 μM, průměr (mean), sheet Z-Bp4eS): 53.60
MTT, relative to control (0 = 100) ([2]; 10 000 b/j, 300 μM, single experiment (date), sheet Z-Bp4eS): 52.3885 and 58.4831 and 53.7777 and 49.7549
MTT, relative to control (0 = 100) ([2]; 10 000 b/j, 1000 μM, průměr (mean), sheet Z-Bp4eS): 39.75
MTT, relative to control (0 = 100) ([2]; 10 000 b/j, 1000 μM, single experiment (date), sheet Z-Bp4eS): 41.1185 and 45.5292 and 39.9014 and 32.4603
IC50 ([2]; Rattus norvegicus, H9c2, H9c2, 10 000 b/j, průměr (mean), sheet Z-Bp4eS, read-out: IC50 měřené): 343 µM
Calcein fluorescence ([3]; 30 sec): 11.525
Calcein fluorescence ([3]; 60 sec): 8.244
Calcein fluorescence ([3]; 90 sec): 15.042
Calcein fluorescence ([3]; 120 sec): 10.528
Calcein fluorescence ([3]; 300 sec): 1.225
Calcein fluorescence ([3]; 600 sec): 2.196
Chelation efficacy: fluorescence of free calcein at t = 600 s as percentage of Bp4eT ([3]; MCF-7, mean of 6 experiments): 0.9956%
Fluorescence of free calcein at 600 s as percentage of Bp4eT ([3]; MCF-7, single experiments): 0% and 5.974%

From PMC4604124, “In Vitro Characterization of the Pharmacological Properties of the Anti-Cancer Chelator, Bp4eT, and Its Phase I Metabolites” (PLoS ONE, 2015)
